Experimental data from patent US12275734B1, “Pleuromutilin onium salt derivative containing a 3H-imidazo[4,5-c]pyridine side chain, and a preparation method and application thereof” (SHAANXI UNIVERSITY OF SCIENCE AND TECHNOLOGY, priority 2024, dated 2025).
In brackets after ≈: the same amount, converted by molar mass.

Experiments:
E. coli (ATCC 25922) [1] = assay: Bacterial extracellular conductivity; assay type: cell-based; conditions: 1×MIC and 2×MIC, vs blank control
Text: Changes in conductivity can reflect the permeability and integrity of the cell membrane. When the cell membrane is damaged or the permeability increases, the flow of ions inside and outside the cell will increase, resulting in an increase in conductivity. In the fields of biology and cell biology, conductivity measurements are often used to assess changes in cell membrane integrity.
MRSA and E. coli cells in the logarithmic growth phase were first resuspended after high-speed centrifugation and repeated PBS buffer washing and adjusted to the appropriate optical density. Next, different concentrations of compound i (1×MIC and 2×MIC) were added to the cell suspension, and a blank control group was set. All samples were incubated at 37° C. and sampled at set time points (0, 1, 2, 4, 6, and 8 hours). […] This series of operations helps to reveal the specific mechanism of action of compound i on bacterial growth and cell structure.

MRSA (ATCC 33591) = assay: Intracellular and extracellular ATP concentration; assay type: cell-based, S. aureus
Protocol: The intracellular and extracellular ATP levels refer to the concentration of ATP inside and outside the cell. Under normal physiological conditions, ATP is mainly produced inside the cell and released outside the cell when needed. This dynamic change is very important for maintaining normal biological homeostasis.
Determine the intracellular ATP concentration using the ATP assay kit:
Secondly, the bacterial suspension was treated with different concentrations of compound i, and a blank control group was set up. Next, the samples were incubated at 37° C. and the cells were lysed by ultrasound to extract ATP. After that, the supernatant was collected by high-speed centrifugation and ATP detection was performed, which involved adding the detection solution and compound to a 96-well plate and using a reader to measure the light intensity. Finally, data analysis and statistics were performed to evaluate the effects of the compound by comparing the ATP levels of different treatment groups.

E. coli (ATCC 25922) [2] = assay: Time-kill curve; assay type: cell-based; conditions: 1×MIC to 8×MIC, 0-24 hours
Protocol: Based on the MIC test results, the best performing active compounds were selected for time-kill curve studies.
(2) Sampling: At 0, 2, 4, 6, 8, 12, and 24 hours, aspirate 100 μL of the mixture
(3) Serial dilution and coating: Use 10 mM PBS buffer to dilute 10 times continuously, and evenly coat the diluted liquid on the agar plate
(4) Incubation and counting: Incubate in a 37° C. incubator for 24 hours and count the colonies.
(5) Sterilization curve drawing: Draw the curve of colony count change over time at different compound concentrations, and record the results as shown in FIG. 1.

[3] = test system: C. pneumoniae CWL-029, VR-1310; assay: Anti-mycoplasma MIC; assay type: cell-based; conditions: Chlamydia pneumoniae, read-out: Antimycoplasma activity (MIC) CP-CWL-029^h
Protocol: The antimycoplasma activity was quantified using the […]. Retapamulin was used as a positive control to test the minimum inhibitory concentration of 3H-imidazo[4,5-C]pyridine pleuromutilin onium salt derivatives.
(1) Preparation of KM2 medium: Weigh 38.9 g of KM2 medium, add it to 800 mL of distilled water, boil to dissolve, sterilize under high pressure at 115° C. for 20 min, and set aside.
(2) Preparation of bacterial stock solution: Take 0.5 mL of Mhp-J^a, Mhp-LH^b, Mhr-BTS-7^c, MG-R^d, MS-WVU1853^e, MP-M129^f, CP-AR-39^g, CP-CWL-029^h, CP-TW-183^i, MH-PG-21^j, MG-G37^k cultured to the logarithmic phase and transfer it to 4.5 mL of KM2 liquid culture medium. When the culture medium turns yellow, divide each bacterium into 0.5 mL per tube and store it at −70° C. as bacterial stock solution.
(3) Determination of bacterial titer (color change unit, CCU): Take out the bacterial stock solution stored at −70° C., melt and balance to room temperature, add 0.18 mL KM2 medium to each well of the middle 4 rows of the 96-well plate (i.e. 4 parallels), take 0.02 mL and add it to the first column, dilute 10 times to 10^−11, and set up a negative control containing only KM2 medium (12th column). After sealing, put it in a 37° C. incubator and observe the results every day. The highest dilution at which the color of the medium changes is the CCU/mL of the strain.
Take an appropriate amount of seed bacterial solution and dilute it to 10^4 CCU/mL in turn according to its titer. Add drugs of each dilution in a 96-well plate in turn, and then add an equal amount of diluted bacterial solution. Set 200 μL of diluted mycoplasma bacterial solution as a positive control, 200 μL of KM2 liquid culture medium as a negative control, and set a solvent control group (10 μL of drug solvent+190 μL of mycoplasma bacterial solution). Each experiment is set up in 3 parallels. After all culture plates are sealed, they are cultured at 37° C., observed daily, and the final MIC value is recorded.

| Structure (SMILES) | extracellular conductivity (E. coli (ATCC 25922) [1]) | extracellular fluorescence intensity (ATP) increased by (MRSA (ATCC 33591); 1×MIC) | intracellular fluorescence intensity (ATP) decreased by (MRSA (ATCC 33591); 1×MIC) | extracellular fluorescence intensity (ATP) increased by (MRSA (ATCC 33591); 2×MIC) | intracellular fluorescence intensity (ATP) decreased by (MRSA (ATCC 33591); 2×MIC) | bactericidal efficiency (time-kill curve) compared with retapamulin (E. coli (ATCC 25922) [2]) | MIC [3] |
| --- | --- | --- | --- | --- | --- | --- | --- |
| C=C[C@]1(C)C[C@@H](OC(=O)CSc2nc3cc[n+](Cc4ccc(C)cc4)cc3[nH]2)[C@]2(C)[C@H](C)CC[C@]3(CCC(=O)[C@H]32)[C@@H](C)[C@@H]1O [Compound i, 5-(4-methylbenzyl)-2-((2-(((3aR,4R,5R,7S,8S,9R,9aS,12R)-8-hydroxy-4,7,9,12-tetramethyl-3-oxo-7-vinyldecahydro-4,9a-propancyclopenta[8]cyclo-5-yl)oxy)-2-oxoethyl)thio)-3H-imidazo[4,5-C]pyridine-5-ium] | increased | 3.27 times | 51.92% | 2.28 times | 74.76% | higher bactericidal efficiency | – |
| C=C[C@]1(C)C[C@@H](OC(=O)CS[C@@H]2C[C@H]3CC[C@@H](C2)N3C)[C@]2(C)[C@H](C)CC[C@]3(CCC(=O)[C@H]32)[C@@H](C)[C@@H]1O [Retapamulin, reference compound] | – | – | – | – | – | – | 0.03 µg/mL (≈ 0.0579 µM) |
